# Earlier results in patent US20260225982A1, “NEW METHOD FOR OZONOLYSIS AND REDUCTIVE QUENCHING OF OZONIDES” (P2 SCIENCE, INC., priority 2023, published 2026).
# Assays:
# [1] = species and route not given; given in comparison with oral rat LD50 of glyoxal
compound,measurement,setting,value
O=CC=O [Glyoxal],oral rat LD50,rat; oral,3300 mg/kg
O=CC(=O)O [Glyoxylic acid],rat LD50,rat; in vivo,2500 mg/kg
[Cl-].[Na+] [table salt],LD50,[1],3000 mg/kg
